Converted amounts (≈) assume the structure as drawn. Read-outs that look alike come from different tables or passages of the source.
Assays:
S. pneumoniae A-9585 = experiment: Minimum Inhibitory Concentration, tube dilution; format: cell-based; details: Streptococcus pneumoniae, A9585, overnight 37° C.; table 6
P. vulgaris A21559 = experiment: Minimum Inhibitory Concentration, tube dilution; format: cell-based; details: Proteus vulgaris, A21559, overnight 37° C.; table 6
E. coli A15119 = experiment: Minimum Inhibitory Concentration, tube dilution; format: cell-based; details: Escherichia coli, A15119, overnight 37° C.; table 6
[1] = test system: S. aureus A-9606 (Pen-res.); experiment: Minimum Inhibitory Concentration, tube dilution; format: cell-based; details: Staphylococcus aureus, Pen-res; table 6
E. cloacae A9659 = experiment: Minimum Inhibitory Concentration, tube dilution; format: cell-based; details: Enterobacter cloacae, A9659, overnight 37° C., table 6
P. aeruginosa A-9843A = experiment: Minimum Inhibitory Concentration, tube dilution; format: cell-based; details: Pseudomonas aeruginosa, A9843A, overnight 37° C.; table 6; read-out: MIC
S. faecalis A20688 = experiment: Minimum Inhibitory Concentration, tube dilution; format: cell-based; details: Enterococcus faecalis, A20688, overnight 37° C., table 6
S. aureus A-9537 = experiment: Minimum Inhibitory Concentration, tube dilution; format: cell-based; details: Staphylococcus aureus, table 6, read-out: MIC
P. aeruginosa A21213 = experiment: Minimum Inhibitory Concentration, tube dilution; format: cell-based; details: Pseudomonas aeruginosa, A21213, overnight 37° C.; table 6; read-out: MIC
P. rettgeri A22424 = experiment: Minimum Inhibitory Concentration, tube dilution; format: cell-based; details: Providencia rettgeri, overnight 37° C.
P. aeruginosa A9843A = experiment: animal or person; format: in vivo, mice; details: Pseudomonas aeruginosa, in Mus musculus, im, read-out: PD50 /treatment
Description: The PD50 (dose in mg/kg required to give protection to 50% of the infected mice) is indicated.

S. marcescens A20019 = experiment: Minimum Inhibitory Concentration, tube dilution; format: cell-based; details: Serratia marcescens, A20019, overnight 37° C.; table 6
B. fragilis A22862 = experiment: Minimum Inhibitory Concentration, tube dilution; format: cell-based; details: Bacteroides fragilis, overnight 37° C., table 6
P. mirabilis A-9900 = experiment: Minimum Inhibitory Concentration, tube dilution; format: cell-based; details: Proteus mirabilis, A9900, overnight 37° C.; table 6
E. coli A20341-1 = experiment: Minimum Inhibitory Concentration, tube dilution; format: cell-based; details: Escherichia coli, A203411, overnight 37° C.; table 6
S. pyogenes A-9604 = experiment: Minimum Inhibitory Concentration, tube dilution; format: cell-based; details: Streptococcus pyogenes, A9604, overnight 37° C.; table 6
K. pneumoniae A20468 = experiment: Minimum Inhibitory Concentration, tube dilution; format: cell-based; details: Klebsiella pneumoniae, A20468, overnight 37° C.; table 6
[2] = Half-life in phosphate buffer pH 7.4; format: physicochemical
Description: To a solution of p-nitrobenzyl 3-[2-(1-pyridinium)ethylthio)]-6α[1-(R)-hydroxyethyl]-7-oxo-1-azabicyclo(3.2.0)hept-2-ene-carboxylate diphenylphosphate (0.16 g, 0.22 mmol) in wet tetrahydrofuran (10mL) was added ether (10mL), potassium phosphate monobasic-sodium hydroxide buffer pH 7.4 (16 mL, 0.05 M) and 10% palladium on charcoal (0.16 g). The resulting mixture was hydrogenated under 40 psi for 1 h at 25° C. The two phases were separated and the organic phase was extracted with water (2×3 mL). The aqeuous solutions were combined, washed with ether (2×10 ml) and poured on top of a column (1.5×6.2 cm) pf μ-bondapak C-18 after the traces of organic solvents have been removed under vacuum. Elution of the column with water gave after lyophylization of the appropriate fractions a yellowish powder 0.062 g (84%), ir (KBr) .nu.max : 3700-3000 (OH), 1755 (C--O of β-lactam), 1630 (pyridinium), 1590 cm^-1 (carboxylate), ^1 Hmr (D2 O): 1.22 (3H, d, J=6.4 Hz, CH3 CHOH), 2.92 (d, J=9.1 Hz, H-4), 2.97 (d, J=9.1 Hz, H-4), 3.20 (dd, J=2.5 Hz, J=6.1 Hz, H-6), 3.44 (t, J=6.0 Hz, CH2 S), 3.93 (dd, J=9.1 Hz, J=2.5 Hz, H-5), 4.82 (t, J=6.0 Hz, CH2 N^+), 8.04 (m, Hm of pyridinium), 8.5 (m, Hp of pyridinium), 8.82 (dd, J=3.2. Hz, J=1.1 Hz, Ho of pyridinium), uv (H2 O) λ max : 259 (ε5800), 296 (ε7030) mμ, .tau.1/2 =13.5 h (measured at a concentration of 10^-4 M in phosphate buffer pH 7.4 at 36.8° C.).

K. pneumoniae A-9664 = experiment: Minimum Inhibitory Concentration, tube dilution; format: cell-based; details: Klebsiella pneumoniae, A9664, overnight 37° C.; table 6

## CSc1cc[n+](CCSC2=C(C(=O)[O-])N3C(=O)[C@H]([C@@H](C)O)[C@H]3C2)cc1 [Example 9, (5R) 3-[2-(4-methylthiopyridinio)ethylthio]-(6S)-[(1R)-hydroxyethyl]-7-oxo-1-azabicyclo[3.2.0]hept-2-ene-2-carboxylate]
S. pneumoniae A-9585
  MIC: 0.002 µg/mL (≈ 0.00526 µM)
P. vulgaris A21559
  MIC: 0.016 µg/mL (≈ 0.0421 µM)
E. coli A15119
  MIC: 0.03 µg/mL (≈ 0.0788 µM)
[1]
  MIC: 0.008 µg/mL (≈ 0.021 µM)
E. cloacae A9659
  MIC: 0.25 µg/mL (≈ 0.657 µM)
P. aeruginosa A-9843A
  MIC: 4 µg/mL (≈ 10.5 µM)
S. faecalis A20688
  MIC: 0.25 µg/mL (≈ 0.657 µM)
S. aureus A-9537; A9537, 50% serum
  MIC: 0.016 µg/mL (≈ 0.0421 µM)
S. aureus A-9537; A9537, overnight 37° C.
  MIC: 0.008 µg/mL (≈ 0.021 µM)
P. aeruginosa A21213
  MIC: 2 µg/mL (≈ 5.26 µM)
P. rettgeri A22424; table 6
  MIC: 0.25 µg/mL (≈ 0.657 µM)
P. aeruginosa A9843A
  ED50: 3.1 mg/kg
S. marcescens A20019
  MIC: 0.06 µg/mL (≈ 0.158 µM)
B. fragilis A22862
  MIC: 0.06 µg/mL (≈ 0.158 µM)
P. mirabilis A-9900
  MIC: 0.06 µg/mL (≈ 0.158 µM)
E. coli A20341-1
  MIC: 0.03 µg/mL (≈ 0.0788 µM)
S. pyogenes A-9604
  MIC: 0.001 µg/mL (≈ 0.00263 µM)
K. pneumoniae A20468
  MIC: 0.25 µg/mL (≈ 0.657 µM)

## COc1ccc[n+](CCSC2=C(C(=O)[O-])N3C(=O)[C@H]([C@@H](C)O)[C@H]3C2)c1 [Example 10, 3-[2-(3-methoxy-1-pyridinium)ethylthio]-6α-[1'-(R)-hydroxyethyl]-7-oxo-1-azabicyclo(3.2.0)-hept-2-ene-2-carboxylate]
[2]; 0.1 m phosphate buffer, pH 7.4, T1/2 (half-life)
  half-life: 20 h
S. pneumoniae A-9585
  MIC: 0.002 µg/mL (≈ 0.00549 µM)
P. vulgaris A21559
  MIC: 0.06 µg/mL (≈ 0.165 µM)
E. coli A15119
  MIC: 0.03 µg/mL (≈ 0.0823 µM)
[1]
  MIC: 0.016 µg/mL (≈ 0.0439 µM)
P. aeruginosa A-9843A
  MIC: 4 µg/mL (≈ 11 µM)
S. aureus A-9537; A9537, 50% serum
  MIC: 0.06 µg/mL (≈ 0.165 µM)
S. aureus A-9537; A9537, overnight 37° C.
  MIC: 0.008 µg/mL (≈ 0.022 µM)
P. aeruginosa A21213
  MIC: 1 µg/mL (≈ 2.74 µM)
P. aeruginosa A9843A
  ED50: 1.8 mg/kg
S. pyogenes A-9604
  MIC: 0.002 µg/mL (≈ 0.00549 µM)
K. pneumoniae A-9664
  MIC: 0.06 µg/mL (≈ 0.165 µM)

## CSc1ccc[n+](CCSC2=C(C(=O)[O-])N3C(=O)[C@H]([C@@H](C)O)[C@H]3C2)c1 [Example 11, (5R,6S)-3-[[2-(3-methylthiopyridinio)ethyl]thio]-6-[1-(R)-hydroxyethyl]-7-oxo-1-azabicyclo[3.2.0]hept-2-ene2-carboxylate]
[2]; phosphate buffer, pH 7.4, 36.8° C., read-out: t1/2 (half-life) (converted)
  half-life: 20 h
S. pneumoniae A-9585
  MIC: 0.001 µg/mL (≈ 0.00263 µM)
P. vulgaris A21559
  MIC: 0.03 µg/mL (≈ 0.0788 µM)
E. coli A15119
  MIC: 0.03 µg/mL (≈ 0.0788 µM)
[1]
  MIC: 0.008 µg/mL (≈ 0.021 µM)
E. cloacae A9659; read-out: MIC
  MIC: 0.06 µg/mL (≈ 0.158 µM)
P. aeruginosa A-9843A
  MIC: 4 µg/mL (≈ 10.5 µM)
S. faecalis A20688; read-out: MIC
  MIC: 0.25 µg/mL (≈ 0.657 µM)
S. aureus A-9537; A9537, 50% serum
  MIC: 0.03 µg/mL (≈ 0.0788 µM)
S. aureus A-9537; A9537, overnight 37° C.
  MIC: 0.004 µg/mL (≈ 0.0105 µM)
P. aeruginosa A21213
  MIC: 1 µg/mL (≈ 2.63 µM)
P. rettgeri A22424; table 6, read-out: MIC
  MIC: 0.25 µg/mL (≈ 0.657 µM)
P. aeruginosa A9843A
  ED50: 2.4 mg/kg
S. marcescens A20019
  MIC: 0.06 µg/mL (≈ 0.158 µM)
B. fragilis A22862
  MIC: 0.06 µg/mL (≈ 0.158 µM)
E. coli A20341-1
  MIC: 0.03 µg/mL (≈ 0.0788 µM)
S. pyogenes A-9604
  MIC: 0.001 µg/mL (≈ 0.00263 µM)
K. pneumoniae A-9664
  MIC: 0.06 µg/mL (≈ 0.158 µM)

## CSc1n(C)cc[n+]1CCSC1=C(C(=O)[O-])N2C(=O)[C@H]([C@@H](C)O)[C@H]2C1 [Example 13, (5R, 6S)-3-[2-(2-methylthio-3-methylimidazolio)ethyl-thio]-6-[1-(R)-hydroxyethyl]-7-oxo-1-azabicyclo[3.2.0]hept-2-ene-2-carboxylate]
S. pneumoniae A-9585
  MIC: 0.001 µg/mL (≈ 0.00261 µM)
P. vulgaris A21559
  MIC: 0.03 µg/mL (≈ 0.0782 µM)
E. coli A15119
  MIC: 0.03 µg/mL (≈ 0.0782 µM)
[1]
  MIC: 0.03 µg/mL (≈ 0.0782 µM)
P. aeruginosa A-9843A
  MIC: 32 µg/mL (≈ 83.4 µM)
S. faecalis A20688; read-out: MIC
  MIC: 0.5 µg/mL (≈ 1.3 µM)
S. aureus A-9537; A9537, 50% serum
  MIC: 0.03 µg/mL (≈ 0.0782 µM)
S. aureus A-9537; A9537, overnight 37° C.
  MIC: 0.008 µg/mL (≈ 0.0209 µM)
P. aeruginosa A21213
  MIC: 2 µg/mL (≈ 5.22 µM)
S. marcescens A20019
  MIC: 0.06 µg/mL (≈ 0.156 µM)
P. mirabilis A-9900
  MIC: 0.03 µg/mL (≈ 0.0782 µM)
E. coli A20341-1
  MIC: 0.03 µg/mL (≈ 0.0782 µM)
S. pyogenes A-9604
  MIC: 0.002 µg/mL (≈ 0.00522 µM)

— patent US4642341A, “Carbapenem antibiotics” (priority 1985, dated 1987)
